Reference: US11226337B2, “Chemoproteomic profiling of protein electrophilic and oxidative post-translational modifications” (Zenagem, LLC, priority 2017, dated 2022)

Assays:
Assay in all cases: SILAC RP-ABPP
Format in all cases: cell-based
[1] = target: T1, PXDN Peroxidasin homolog (Q92626) (Homo sapiens, UniProt Q92626); details: SILAC H/L, MDA-MB-231
T1 construct: In Situ Labelling of Cells with Hydrazine Probes for MS Experiments; endogenous in cells; host or cells: HEK293T and/or MDA-MB-231
Procedure, shortened: (§1)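 Heavy SILAC HEK293T or MDA-MB-231 cells were treated with a clickable hydrazine probe; light cells received the non-clickable analogue (enrichment) or the probe plus 10-fold excess non-clickable competitor (competition). Mixed proteomes underwent CuAAC with 100 μM biotin-azide for 1 h. Heavy:light ratios were taken as median peptide ratios (≥3 peptides) averaged over ≥3 replicates.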

[2] = target: T2, ASAH1 Acid ceramidase (Q13510) (Homo sapiens, UniProt Q13510); details: SILAC H/L, MDA-MB-231
T2 construct: endogenous in cells; host or cells: HEK293T or MDA-MB-231
Procedure, shortened: as §1

[3] = target: T3, P4HA2 Prolyl 4hydroxylase subunit alpha2 (O15460) (Homo sapiens, UniProt O15460); details: SILAC H/L, MDA-MB-231
T3 construct: endogenous in cells; host or cells: HEK293T or MDA-MB-231
Procedure, shortened: as §1

[4] = target: T4, NEU1 Sialidase1 (Q99519) (Homo sapiens, UniProt Q99519); details: SILAC H/L, MDA-MB-231
T4 construct: endogenous in cells; host or cells: HEK293T or MDA-MB-231
Procedure, shortened: as §1

[5] = target: T5, KDM1B Lysinespecific histone demethylase 1B (Q8NB78) (Homo sapiens, UniProt Q8NB78); details: SILAC H/L, HEK293T
T5 construct: In Situ Labelling of Cells with Hydrazine Probes for MS Experiments; endogenous in cells; host or cells: HEK293T and/or MDA-MB-231
Procedure, shortened: as §1

[6] = target: T6, MMP14 Matrix metalloproteinase14 (P50281) (Homo sapiens, UniProt P50281); details: SILAC H/L, MDA-MB-231
T6 construct: endogenous in cells; host or cells: HEK293T or MDA-MB-231
Procedure, shortened: as §1

[7] = target: T7, PHF8 Histone lysine demethylase PHF8 (Q9UPP1) (Homo sapiens, UniProt Q9UPP1); details: SILAC H/L, HEK293T
T7 construct: In Situ Labelling of Cells with Hydrazine Probes for MS Experiments; endogenous in cells
Procedure, shortened: as §1

[8] = target: T8, HEXB Betahexosaminidase subunit beta (P07686) (Homo sapiens, UniProt P07686); details: SILAC H/L, MDA-MB-231
T8 construct: endogenous in cells; host or cells: HEK293T or MDA-MB-231
Procedure, shortened: as §1

[9] = target: T9, NAGA AlphaNacetylgalactosaminidase (P17050) (Homo sapiens, UniProt P17050); details: SILAC H/L, MDA-MB-231
T9 construct: endogenous in cells; host or cells: HEK293T or MDA-MB-231
Procedure, shortened: as §1

[10] = target: T10, BCAT1 Branchedchainaminoacid (P54687) (Homo sapiens, UniProt P54687); details: SILAC H/L, MDA-MB-231
T10 construct: endogenous in cells; host or cells: HEK293T or MDA-MB-231
Procedure, shortened: as §1

[11] = target: T11, aminotransferase, mitoch (O15382) (Homo sapiens, UniProt O15382); details: SILAC H/L, MDA-MB-231
T11 construct: endogenous in cells; host or cells: HEK293T or MDA-MB-231
Procedure, shortened: as §1

[12] = target: T12, PRCP Lysosomal ProX carboxypeptidase (P42785) (Homo sapiens, UniProt P42785); details: SILAC H/L, MDA-MB-231
T12 construct: endogenous in cells; host or cells: HEK293T or MDA-MB-231
Procedure, shortened: as §1

[13] = target: T13, CMBL Carboxymethylenebutenolidase homolog (Q96DG6) (Homo sapiens, UniProt Q96DG6); details: SILAC H/L, HEK293T
T13 construct: In Situ Labelling of Cells with Hydrazine Probes for MS Experiments; endogenous in cells; host or cells: HEK293T and/or MDA-MB-231
Procedure, shortened: as §1

[14] = target: T14, CPD Carboxypeptidase D (O75976) (Homo sapiens, UniProt O75976); details: SILAC H/L, MDA-MB-231
T14 construct: In Situ Labelling of Cells with Hydrazine Probes for MS Experiments; endogenous in cells; host or cells: HEK293T and/or MDA-MB-231
Procedure, shortened: as §1

T7 sequence (Q9UPP1 whole entry): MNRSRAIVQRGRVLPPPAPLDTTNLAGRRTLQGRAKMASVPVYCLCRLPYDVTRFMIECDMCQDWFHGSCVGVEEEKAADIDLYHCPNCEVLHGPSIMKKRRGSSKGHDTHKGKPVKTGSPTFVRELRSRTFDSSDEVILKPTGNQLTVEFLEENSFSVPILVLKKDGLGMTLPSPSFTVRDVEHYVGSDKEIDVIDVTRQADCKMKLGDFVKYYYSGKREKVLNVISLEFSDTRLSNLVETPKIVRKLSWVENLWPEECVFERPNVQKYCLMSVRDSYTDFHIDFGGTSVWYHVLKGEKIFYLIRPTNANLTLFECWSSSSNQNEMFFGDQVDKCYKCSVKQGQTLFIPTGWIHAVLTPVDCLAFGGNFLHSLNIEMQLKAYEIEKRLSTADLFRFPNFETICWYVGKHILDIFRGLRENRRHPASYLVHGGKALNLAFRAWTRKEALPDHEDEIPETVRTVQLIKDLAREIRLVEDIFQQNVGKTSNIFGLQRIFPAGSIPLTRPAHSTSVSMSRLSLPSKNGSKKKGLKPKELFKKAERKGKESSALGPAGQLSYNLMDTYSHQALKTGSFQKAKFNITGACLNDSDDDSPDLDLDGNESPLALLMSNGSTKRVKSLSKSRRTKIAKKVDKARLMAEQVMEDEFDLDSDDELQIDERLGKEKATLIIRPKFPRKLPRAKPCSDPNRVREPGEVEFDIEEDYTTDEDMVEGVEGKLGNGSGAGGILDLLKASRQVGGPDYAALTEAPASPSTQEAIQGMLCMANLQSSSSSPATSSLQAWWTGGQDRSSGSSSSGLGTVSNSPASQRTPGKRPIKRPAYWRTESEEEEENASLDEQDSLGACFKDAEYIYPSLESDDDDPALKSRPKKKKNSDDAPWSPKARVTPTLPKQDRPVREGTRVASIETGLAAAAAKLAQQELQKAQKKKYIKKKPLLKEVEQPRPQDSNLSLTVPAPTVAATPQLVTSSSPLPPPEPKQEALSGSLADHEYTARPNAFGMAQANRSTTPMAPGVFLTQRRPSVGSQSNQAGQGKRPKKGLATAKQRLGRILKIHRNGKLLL
T11 sequence (O15382 28-392): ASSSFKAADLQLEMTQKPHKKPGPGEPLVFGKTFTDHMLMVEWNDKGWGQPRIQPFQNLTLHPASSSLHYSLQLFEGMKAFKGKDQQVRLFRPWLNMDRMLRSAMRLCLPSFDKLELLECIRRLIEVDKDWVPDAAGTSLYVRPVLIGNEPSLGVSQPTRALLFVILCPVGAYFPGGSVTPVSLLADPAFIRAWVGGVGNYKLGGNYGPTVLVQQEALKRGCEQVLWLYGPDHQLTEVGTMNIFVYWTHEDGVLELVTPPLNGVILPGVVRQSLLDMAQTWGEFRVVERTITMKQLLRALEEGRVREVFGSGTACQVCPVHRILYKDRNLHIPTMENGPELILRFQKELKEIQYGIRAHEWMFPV
T5 sequence (Q8NB78 whole entry): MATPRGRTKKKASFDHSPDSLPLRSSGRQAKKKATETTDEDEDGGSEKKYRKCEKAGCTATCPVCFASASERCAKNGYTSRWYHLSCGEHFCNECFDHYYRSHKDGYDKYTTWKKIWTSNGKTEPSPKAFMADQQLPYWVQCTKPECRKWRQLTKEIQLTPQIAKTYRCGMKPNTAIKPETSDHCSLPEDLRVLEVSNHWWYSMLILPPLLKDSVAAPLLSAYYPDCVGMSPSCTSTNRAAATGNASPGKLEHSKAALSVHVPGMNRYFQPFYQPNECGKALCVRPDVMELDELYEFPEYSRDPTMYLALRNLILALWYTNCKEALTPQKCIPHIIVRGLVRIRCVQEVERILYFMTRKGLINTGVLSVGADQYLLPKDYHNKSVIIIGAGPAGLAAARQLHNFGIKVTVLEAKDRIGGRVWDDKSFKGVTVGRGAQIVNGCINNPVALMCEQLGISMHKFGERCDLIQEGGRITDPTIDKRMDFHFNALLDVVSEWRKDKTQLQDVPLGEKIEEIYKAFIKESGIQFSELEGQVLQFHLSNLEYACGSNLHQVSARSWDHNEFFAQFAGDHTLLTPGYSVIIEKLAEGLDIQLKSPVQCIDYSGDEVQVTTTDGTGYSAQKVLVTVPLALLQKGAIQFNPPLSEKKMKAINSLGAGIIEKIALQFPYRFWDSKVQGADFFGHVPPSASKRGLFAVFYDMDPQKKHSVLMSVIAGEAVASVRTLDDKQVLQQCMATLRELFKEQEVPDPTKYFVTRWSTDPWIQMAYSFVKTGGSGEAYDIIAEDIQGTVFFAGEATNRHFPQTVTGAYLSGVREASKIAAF
T13 sequence (Q96DG6 whole entry): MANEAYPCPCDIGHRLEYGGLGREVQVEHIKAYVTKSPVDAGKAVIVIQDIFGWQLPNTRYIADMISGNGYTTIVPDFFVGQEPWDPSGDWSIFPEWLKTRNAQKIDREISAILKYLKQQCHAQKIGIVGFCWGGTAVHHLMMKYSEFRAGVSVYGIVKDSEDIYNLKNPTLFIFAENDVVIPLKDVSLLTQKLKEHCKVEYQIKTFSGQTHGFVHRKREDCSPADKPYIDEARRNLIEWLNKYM
T9 sequence (P17050 18-411): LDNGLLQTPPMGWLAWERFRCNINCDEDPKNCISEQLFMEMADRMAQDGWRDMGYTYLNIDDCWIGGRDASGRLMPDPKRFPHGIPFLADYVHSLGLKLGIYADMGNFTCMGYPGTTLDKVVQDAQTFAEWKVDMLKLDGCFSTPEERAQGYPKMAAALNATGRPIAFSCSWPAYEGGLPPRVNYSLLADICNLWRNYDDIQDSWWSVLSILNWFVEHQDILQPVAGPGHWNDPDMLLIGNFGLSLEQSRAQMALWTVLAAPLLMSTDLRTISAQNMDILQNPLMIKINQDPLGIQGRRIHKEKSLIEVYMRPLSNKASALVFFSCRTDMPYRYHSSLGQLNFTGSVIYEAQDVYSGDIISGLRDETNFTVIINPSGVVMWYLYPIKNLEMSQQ
T3 sequence (O15460 22-535): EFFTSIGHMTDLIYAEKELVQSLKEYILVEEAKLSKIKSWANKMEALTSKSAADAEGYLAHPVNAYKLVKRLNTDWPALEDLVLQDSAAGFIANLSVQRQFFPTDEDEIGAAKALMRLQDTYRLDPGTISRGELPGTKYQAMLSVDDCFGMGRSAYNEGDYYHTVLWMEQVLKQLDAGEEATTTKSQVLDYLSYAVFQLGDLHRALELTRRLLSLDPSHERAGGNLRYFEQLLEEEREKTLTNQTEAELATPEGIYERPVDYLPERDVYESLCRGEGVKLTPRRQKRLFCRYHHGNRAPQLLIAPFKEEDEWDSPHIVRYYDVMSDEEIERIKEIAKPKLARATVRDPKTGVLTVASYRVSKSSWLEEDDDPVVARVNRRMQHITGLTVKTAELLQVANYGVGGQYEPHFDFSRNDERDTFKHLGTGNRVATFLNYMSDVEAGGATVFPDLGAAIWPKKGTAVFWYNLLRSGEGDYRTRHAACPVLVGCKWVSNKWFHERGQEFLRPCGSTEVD
T3 sequence (P07237 18-508 partner): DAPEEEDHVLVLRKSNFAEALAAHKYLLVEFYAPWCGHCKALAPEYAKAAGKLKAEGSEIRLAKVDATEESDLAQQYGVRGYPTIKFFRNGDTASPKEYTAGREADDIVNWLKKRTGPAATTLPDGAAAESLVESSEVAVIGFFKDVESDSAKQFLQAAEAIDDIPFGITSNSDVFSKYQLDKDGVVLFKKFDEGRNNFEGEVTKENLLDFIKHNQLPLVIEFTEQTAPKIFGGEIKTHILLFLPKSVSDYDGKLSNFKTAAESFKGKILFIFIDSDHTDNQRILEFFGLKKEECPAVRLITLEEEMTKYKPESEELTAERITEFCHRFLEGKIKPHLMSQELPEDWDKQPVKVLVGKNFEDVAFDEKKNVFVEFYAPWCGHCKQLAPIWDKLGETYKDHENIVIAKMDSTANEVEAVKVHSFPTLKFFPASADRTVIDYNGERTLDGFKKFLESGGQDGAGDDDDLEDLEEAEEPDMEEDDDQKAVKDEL
T12 sequence (P42785 46-496): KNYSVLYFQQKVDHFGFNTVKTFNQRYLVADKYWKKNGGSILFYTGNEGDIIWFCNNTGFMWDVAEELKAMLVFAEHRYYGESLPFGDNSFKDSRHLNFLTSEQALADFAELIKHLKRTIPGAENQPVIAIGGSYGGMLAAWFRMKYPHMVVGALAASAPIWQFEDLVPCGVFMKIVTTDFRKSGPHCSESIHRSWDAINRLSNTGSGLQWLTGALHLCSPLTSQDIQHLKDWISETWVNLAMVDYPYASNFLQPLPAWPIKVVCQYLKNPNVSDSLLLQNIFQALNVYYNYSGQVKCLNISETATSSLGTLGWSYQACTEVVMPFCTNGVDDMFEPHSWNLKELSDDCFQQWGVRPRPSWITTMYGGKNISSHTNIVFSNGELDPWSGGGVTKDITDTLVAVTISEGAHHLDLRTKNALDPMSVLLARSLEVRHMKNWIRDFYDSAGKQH
T10 sequence (P54687 whole entry): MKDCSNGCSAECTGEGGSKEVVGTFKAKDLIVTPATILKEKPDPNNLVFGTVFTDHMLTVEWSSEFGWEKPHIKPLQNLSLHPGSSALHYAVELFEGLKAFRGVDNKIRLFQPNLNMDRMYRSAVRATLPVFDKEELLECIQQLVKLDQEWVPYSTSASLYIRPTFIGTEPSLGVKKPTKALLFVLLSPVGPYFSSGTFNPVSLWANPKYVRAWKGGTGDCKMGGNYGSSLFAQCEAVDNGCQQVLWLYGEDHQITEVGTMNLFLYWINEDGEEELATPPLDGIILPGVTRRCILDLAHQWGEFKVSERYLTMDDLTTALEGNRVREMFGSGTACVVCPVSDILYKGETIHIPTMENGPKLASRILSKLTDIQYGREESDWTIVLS

C#CCCNC(=O)c1ccc(NN)cc1.Cl [probe 2, N-(but-3-yn-1-yl)-4-hydrazinylbenzamide hydrochloride]
enrichment ratioavg ([1]; probe 2 1 mM 0.5 h vs probe 4): 20 | competition ratioavg ([1]; probe 2 vs probe 2+10x probe 4): 5 | enrichment ratioavg ([2]; probe 2 1 mM 0.5 h vs probe 4): 20 | competition ratioavg ([2]; probe 2 vs probe 2+10x probe 4): 4 | enrichment ratioavg ([3]; probe 2 1 mM 0.5 h vs probe 4): 20 | competition ratioavg ([3]; probe 2 vs probe 2+10x probe 4): 3 | enrichment ratioavg ([4]; probe 2 1 mM 0.5 h vs probe 4): 5 | competition ratioavg ([4]; probe 2 vs probe 2+10x probe 4): 3 | enrichment ratioavg ([5]; probe 2 1 mM 0.5 h vs probe 4): 17 | competition ratioavg ([5]; probe 2 vs probe 2+10x probe 4): 2 | enrichment ratioavg ([6]; probe 2 1 mM 0.5 h vs probe 4): 10 | competition ratioavg ([6]; probe 2 vs probe 2+10x probe 4): 3 | enrichment ratioavg ([7]; probe 2 1 mM 0.5 h vs probe 4): 20 | competition ratioavg ([7]; probe 2 vs probe 2+10x probe 4): 15 | enrichment ratioavg ([8]; probe 2 1 mM 0.5 h vs probe 4): 11 | competition ratioavg ([8]; probe 2 vs probe 2+10x probe 4): 3 | enrichment ratioavg ([9]; probe 2 1 mM 0.5 h vs probe 4): 17 | competition ratioavg ([9]; probe 2 vs probe 2+10x probe 4): 3 | enrichment ratioavg ([10]; probe 2 1 mM 0.5 h vs probe 4): 20 | competition ratioavg ([10]; probe 2 vs probe 2+10x probe 4): 2 | enrichment ratioavg ([11]; probe 2 1 mM 0.5 h vs probe 4): 15 | competition ratioavg ([11]; probe 2 vs probe 2+10x probe 4): 2 | enrichment ratioavg ([12]; probe 2 1 mM 0.5 h vs probe 4): 15 | competition ratioavg ([12]; probe 2 vs probe 2+10x probe 4): 4 | enrichment ratioavg ([13]; probe 2 1 mM 0.5 h vs probe 4): 18 | competition ratioavg ([13]; probe 2 vs probe 2+10x probe 4): 3 | enrichment ratioavg ([14]; probe 2 1 mM 0.5 h vs probe 4): 20 | competition ratioavg ([14]; probe 2 vs probe 2+10x probe 4): 15
